According to patent US20100249234A1, “METHODS OF REDUCING VIRULENCE IN BACTERIA” (UWM RESEARCH FOUNDATION, INC., priority 2007, published 2010):

Assays:
Assay type in all cases: cell-based, Dickeya dadantii 3937 (Ech3937)
hrpS mRNA = experiment: qRT-PCR relative mRNA level of hrpS
Protocol: Bacterial strains were grown in MM. Total RNA from the bacterial cells was isolated by using the TRI reagent method (Sigma, Mo.) and treated with Turbo DNA-free DNase kits (Ambion, TX) as described (Peng et al., 2006). An iScript cDNA Synthesis Kit (Bio-Rad, CA) was used to synthesize cDNA from 0.5 μg of treated total RNA. The Real Master Mix (Eppendorf, Westbury, N.Y.) was used for qRT-PCR reaction to quantify the cDNA level of target genes in different samples. The rplU was used as the endogenous control for data analysis. qRT-PCR data were analyzed using Relative Expression Software Tool as described (Pfaffl, M. W., Horgan, G. W., and Dempfle, L. (2002) Relative expression software tool (REST) for group-wise comparison and statistical analysis of relative expression results in real-time PCR. Nucleic Acids Res 30:e36.).

hrpL promoter = hrpL promoter activity, GFP reporter plasmid phrpL, flow cytometry (FACS)
Protocol: (§1) FACS analysis of promoter activity of dspE, hrpA, hrpL, hrpN, and hrpS was carried out as described (Peng et al., 2006). Briefly, the wild-type Ech3937 and the mutant strains carrying the promoter reporter plasmid were grown on LB broth at 28° C. overnight and transferred to appropriate media. For FACS analysis, samples were collected by centrifugation, washed with 1× phosphate buffer saline (PBS) at 13,000 rpm for 1 min, and re-suspended in 1×PBS to ca 10^6 CFU/ml prior to being run in a FACS Calibur flow cytometer (BD Biosciences, CA). Three replicates were performed for each treatment.
(§2) Since OCA and TCA induced the expression of hrpN, the effect of these two phenolic compounds on the expression of hrpA, hrpL, and hrpS was investigated further. […] GFP intensity was determined on gated populations of bacterial cells by flow cytometry and analyzed with the Cell Quest software (BD Biosciences, San Jose, Calif.). The lines labeled “1” stand for the GFP expression control base level of the Ech3937 containing pPROBE-AT vector; lines labeled “2” stand for the promoter activity of hrpS, hrpL, hrpA and hrpN in Ech3937 in MM; lines labeled “3” stand for the promoter activity of Ech3937 in MM supplemented with 0.1 mM OCA; lines labeled “4” stand for the promoter activity of hrpL mutant WPP96 in MM; lines labeled “5” stand for the promoter activity of hrpL mutant WPP96 in MM supplemented with 0.1 mM OCA. Values are representative of at least two experiments. […] Compared with MM alone, the average GFP fluorescence intensity of bacterial cells of Ech3937 (phrpA) was doubled when 0.1 mM of OCA and TCA were added to the medium (Table 4; FIG. 3). […] The mrp, whose protein product has an ATPase conserved domain (2e-06), was used as a reference gene in this study.

hrpN promoter = hrpN promoter activity, GFP reporter plasmid phrpN, flow cytometry (FACS); conditions: for GFP intensity (Mean Fluorescence Intensity) of WPP96 (phrpN): hrpL mutant WPP96; for GFP intensity (Mean Fluorescence Intensity) of Ech138 (phrpN): iaaM mutant Ech138, MM + 0.1 mM OCA; for GFP intensity (Mean Fluorescence Intensity) of WPP90 (phrpN): hrpS mutant WPP90; for GFP intensity (Mean Fluorescence Intensity) of WPP67 (phrpN): hrpX mutant WPP67; for GFP intensity (Mean Fluorescence Intensity) of WPP92 (phrpN): hrpY mutant WPP92
mrp promoter = experiment: mrp (reference gene) promoter activity, GFP reporter pmrp, flow cytometry (FACS); conditions: for GFP intensity (Mean Fluorescence Intensity) of Ech3937 (pmrp): reference gene
Protocol: as §1, §2

Ech3937 = experiment: Growth of Ech3937 in MM supplemented with compound
Excerpt: Phenolic compounds constitute an important class of organic substances produced by plants. The phenolic compound SA is a signaling molecule that plays a role in host defenses. OCA and TCA are the biosynthetic precursors of SA and are also reported to induce the expression of defense-related genes in plants. OCA, TCA, and SA were examined to elucidate their effects on the expression of T3SS genes. The expression of the T3SS gene hrpN was examined in MM and MM supplemented with OCA, TCA, and SA, at concentrations of 0.05, 0.1, and 0.2 mM, respectively. FIGS. 2A and 2B show the promoter activities of hrpN in Dickeya dadantii 3937 (Ech3937) grown in MM and MM supplemented with 0.05, 0.1, and 0.2 mM OCA, TCA, and SA at 12 h (FIG. 2A) and 24 h (FIG. 2B) post-inoculation. GFP intensity was determined on gated populations of bacterial cells by flow cytometry and analyzed with the Cell Quest software (BD Biosciences, San Jose, Calif.). The growth of Ech3937 in MM supplemented with different concentrations of OCA, TCA and SA was recorded. Compared with MM alone, the average GFP fluorescence intensity of bacterial cells of Ech3937 (phrpN) was increased approximately 4-fold when 0.05 mM of OCA and TCA were added to the medium (FIGS. 2A, 2B).
The expression of the T3SS gene hrpA was further examined in MM and MM supplemented with PCA at concentrations of 0.001, 0.005, 0.01, 0.05 and 0.1 mM respectively. FIGS. 16A and 16B show the promoter activities of hrpA in Dickeya dadantii 3937 (Ech3937) grown in minimum medium (MM) and MM supplemented with different amount of p-coumaric acid (PCA) at 12 h (FIG. 16A) and 24 h (FIG. 16B) post-inoculation. GFP intensity was determined on gated populations of bacterial cells by flow cytometry and analyzed with the Cell Quest software (BD Biosciences, San Jose, Calif.). The growth of Ech3937 in MM supplemented with different concentrations of PCA was recorded. Compared with MM alone, the average GFP fluorescence intensity of bacterial cells of Ech3937 (phrpA) was reduced more than 4-fold when 0.05 and 0.1 mM of PCA were added to the medium (FIGS. 16A, 16B).

[1] = MM + 0.1 mM compound, 12 h (Table 4)
[2] = MM + 0.1 mM PCA (MMPCA), 12 h (Table 10)
[3] = MM + 0.1 mM PCA (MMPCA), 24 h (Table 10)

O=C(O)/C=C/c1ccccc1O [OCA, o-coumaric acid]
hrpS gene expression, MM vs supplemented MM (qRT-PCR) (hrpS mRNA; MM supplemented with OCA, p>0.5 (FIG. 4)): No significant difference | promoter activity of hrpL compared with MM alone (hrpL promoter; Ech3937, MM + 0.1 mM compound, 12 h): slightly higher promoter activity | GFP intensity (Mean Fluorescence Intensity) of Ech3937 (phrpL) (hrpL promoter; [1]): 19 ± 0 | GFP intensity (Mean Fluorescence Intensity) of WPP96 (phrpL) (hrpL promoter; hrpL mutant WPP96, MM + 0.1 mM compound, 12 h (Table 4)): 313 ± 29 | increase of average GFP fluorescence intensity of Ech3937 (phrpN) compared with MM alone (hrpN promoter; 0.05 mM compound added to MM, 12 h and 24 h (FIGS. 2A, 2B)): approximately 4 fold | induction of hrpN expression in Ech3937 and in hrpX (WPP67), hrpY (WPP92), hrpS (WPP90) mutants (hrpN promoter; 0.1 mM compound in MM, 12 h (FIG. 5)): induced the expression of hrpN in Ech3937, but not in hrpX, hrpY, and hrpS mutants | GFP intensity (Mean Fluorescence Intensity) of Ech3937 (phrpN) (hrpN promoter; MM + 0.1 mM OCA (MMOCA), 6 h (Table 5)): 31 ± 3 | GFP intensity (Mean Fluorescence Intensity) of Ech3937 (phrpN) (hrpN promoter; MM + 0.1 mM OCA (MMOCA), 12 h (Table 5)): 91 ± 8 | GFP intensity (Mean Fluorescence Intensity) of Ech3937 (phrpN) (hrpN promoter; MM + 0.1 mM OCA (MMOCA), 24 h (Table 5)): 78 ± 8 | GFP intensity (Mean Fluorescence Intensity) of Ech3937 (phrpN) (hrpN promoter; [1]): 94 ± 3 | GFP intensity (Mean Fluorescence Intensity) of WPP96 (phrpN) (hrpN promoter; [1]): 3.3 ± 0.1 | GFP intensity (Mean Fluorescence Intensity) of Ech138 (phrpN) (hrpN promoter; 6 h): 9.1 ± 1.6 | GFP intensity (Mean Fluorescence Intensity) of Ech138 (phrpN) (hrpN promoter; 12 h): 33 ± 5 | GFP intensity (Mean Fluorescence Intensity) of Ech138 (phrpN) (hrpN promoter; 24 h): 39 ± 5 | mrp expression in Ech3937 (pmrp) compared with MM (mrp promoter; MM + 0.1 mM compound, 12 h): slightly higher mrp expression | GFP intensity (Mean Fluorescence Intensity) of Ech3937 (pmrp) (mrp promoter; [1]): 97.7 ± 1.6 | bacterial growth of Ech3937 in supplemented MM (Ech3937; 0.05, 0.1 and 0.2 mM in MM (FIGS. 2A, 2B)): No reduction of bacterial growth

O=C(O)/C=C/c1ccc(O)cc1 [PCA, p-coumaric acid]
hrpS mRNA relative expression ratio (hrpS mRNA; MM supplemented with PCA vs MM alone (normalized to 1), P=0.001): 0.223 | GFP intensity (Mean Fluorescence Intensity) of Ech3937 (phrpL) (hrpL promoter; [2]): 7.8 ± 0.1 | GFP intensity (Mean Fluorescence Intensity) of Ech3937 (phrpL) (hrpL promoter; [3]): 11.1 ± 3.3 | GFP intensity (Mean Fluorescence Intensity) of Ech3937 (phrpN) (hrpN promoter; [2]): 6.8 ± 0.8 | GFP intensity (Mean Fluorescence Intensity) of Ech3937 (phrpN) (hrpN promoter; MM + 0.1 mM PCA (MMPCA), 12 h (Table 11)): 4.3 ± 0.1 | GFP intensity (Mean Fluorescence Intensity) of Ech3937 (phrpN) (hrpN promoter; [3]): 11.3 ± 3.4 | GFP intensity (Mean Fluorescence Intensity) of Ech3937 (phrpN) (hrpN promoter; MM + 0.1 mM PCA (MMPCA), 24 h (Table 11)): 8.8 ± 2.1 | promoter activity (expression) of hrpN compared with MM alone (hrpN promoter; MM supplemented with 0.1 mM PCA): reduced expression | GFP intensity (Mean Fluorescence Intensity) of WPP96 (phrpN) (hrpN promoter; MM + 0.1 mM PCA, 12 h): 3.0 ± 0.0 | GFP intensity (Mean Fluorescence Intensity) of WPP96 (phrpN) (hrpN promoter; MM + 0.1 mM PCA, 24 h): 4.3 ± 0.1 | GFP intensity (Mean Fluorescence Intensity) of WPP90 (phrpN) (hrpN promoter; MM + 0.1 mM PCA, 12 h): 3.5 ± 0.1 | GFP intensity (Mean Fluorescence Intensity) of WPP90 (phrpN) (hrpN promoter; MM + 0.1 mM PCA, 24 h): 5.1 ± 0.1 | GFP intensity (Mean Fluorescence Intensity) of WPP67 (phrpN) (hrpN promoter; MM + 0.1 mM PCA, 12 h): 3.5 ± 0.2 | GFP intensity (Mean Fluorescence Intensity) of WPP67 (phrpN) (hrpN promoter; MM + 0.1 mM PCA, 24 h): 6.3 ± 0.7 | GFP intensity (Mean Fluorescence Intensity) of WPP92 (phrpN) (hrpN promoter; MM + 0.1 mM PCA, 12 h): 3.6 ± 0.1 | GFP intensity (Mean Fluorescence Intensity) of WPP92 (phrpN) (hrpN promoter; MM + 0.1 mM PCA, 24 h): 5.5 ± 0.3 | GFP intensity (Mean Fluorescence Intensity) of Ech3937 (pmrp) (mrp promoter; MM + 0.1 mM PCA, 12 h (Table 10)): 124.1 ± 2.7 | GFP intensity (Mean Fluorescence Intensity) of Ech3937 (pmrp) (mrp promoter; MM + 0.1 mM PCA, 24 h (Table 10)): 98.9 ± 1.0 | bacterial growth of Ech3937 in MM with PCA (Ech3937; PCA 0.001 to 0.1 mM in MM (FIGS. 16A, 16B)): Inhibition of bacterial growth was not observed
